How the values were obtained:
[1] = target: T1, secreted soluble GalNAc-T4 (Homo sapiens, UniProt Q8N4A0); test: Inhibition of secreted soluble GalNAc-T4 (sT4) binding to GalNAc-MUC1 glycopeptide, ELISA
T1 construct: 6xHis (N); thrombin cleavage site (N); T7 antibody site (N); made in house; host or cells: baculovirus (pAcGP67A), High Five insect cells
Method: (§1) Direct binding ELISA assay was developed as follows: Polystyrene microtiter plates (Maxisorb, Nunc, Denmark) were coated with peptides or enzymatically glycosylated glycopeptides in PBS overnight at 4° C. Plates were washed and blocked with 0.1% Tween20 and 0.2% BSA in PBS for 1 h at room temperature, followed by incubation with biotinylated proteins in PBS with 0.05% Tween20 for 2 h at room temperature. After four washes with PBS, plates were incubated with 1:2,000 dilution streptavidin-HRP (Sigma) in PBS for 30 min at room temperature and washed four times with PBS. Development was performed with 0.5 mg/ml o-phenylenediamine and 0.02% H2O2 at room temperature for 15 min, and reaction stopped by adding 100 μl/well of 0.5 N H2SO4. Competitive inhibition assays were done at end-point titers of GalNAc-transferase proteins with one hour preincubations with inhibitor.
(§2) Inhibition experiments were used to further define the binding specificity of GalNAc-T2 and -T4 secreted soluble enzymes as well as lectin domains compared to Helix Pomatia lectin (Table IV).

GalNAc-T4 lectin domain = target: T2, GalNAc-T4 lectin domain (Homo sapiens, UniProt Q8N4A0); test: Inhibition of GalNAc-T4 lectin domain (T4ld) binding to GalNAc-MUC1 glycopeptide, ELISA
T2 construct: comprises amino acid residues 405-578 of GALNT4; made in house; host or cells: baculovirus (pAcGP67-A), virus made in Sf9, protein produced in High Five insect cells
Method: as §1
(§3) In binding studies using lectins without biotinylation antibodies to the HIS-tag and the T7-tag, or in some experiments antibodies raised to GalNAc-T2 and -T4 enzymes were used to detect binding.
as §2

[2] = target: T3, secreted soluble GalNAc-T2 (Homo sapiens, UniProt Q10471); test: Inhibition of secreted soluble GalNAc-T2 (sT2) binding to GalNAc-MUC1 glycopeptide, ELISA
T3 construct: 6xHis (N); thrombin cleavage site (N); T7 antibody site (N); made in house; host or cells: baculovirus (pAcGP67A), High Five insect cells
Method: as §1, §2

[3] = target: human GalNAc-T2 (UDP-GalNAc:polypeptide N-acetylgalactosaminyltransferase T2), secreted soluble enzyme (sT2), wild type (Homo sapiens, UniProt Q10471); test: biochemical; settings: binding to GalNAc-MUC1 glycopeptide
Method: The pH of 1 ml purified protein (0.3 mg/ml) in PBS was adjusted to pH 9 with 1 M NaOH and 40 μl N-hydroxy-succinimidobiotin (Sigma) dissolved in DMF (10 mg/ml) was added. The solution was mixed end-over-end for 2 hours at room temperature, and dialyzed three times against PBS and an equal volume of glycerol was added. The biotinylated proteins were stored at −20° C. in 50% glycerol until use.
Glycopeptides were purified by C-18 reverse phase HPLC. Peptides were custom synthesized by Neosystems (Strasbourg). Biotinylated Helix Pomatia lectin (HPA) was from KemEnTec (Denmark). Anti-MUC1 HMFG2 monoclonal antibody was a generous gift from Joyce Taylor-Papadimitriou.
as §1, with “Development was performed with 0.5 mg/ml o-phenylenediamine and 0.02% H2O2 at room temperature for 15 min, and reaction stopped by adding 100 μl/well of 0.5 N H2SO4. Competitive inhibition assays were done at end-point titers of GalNAc-transferase proteins with one hour preincubations with inhibitor.” left out

GalNAc-T2 lectin domain = target: T4, GalNAc-T2 lectin domain (Homo sapiens, UniProt Q10471); test: Inhibition of GalNAc-T2 lectin domain (T2ld) binding to GalNAc-MUC1 glycopeptide, ELISA
T4 construct: comprises amino acid residues 408-571 of GALNT2; made in house; host or cells: baculovirus (pAcGP67-A), virus made in Sf9, protein produced in High Five insect cells
T4 sequence (Q10471 408-571): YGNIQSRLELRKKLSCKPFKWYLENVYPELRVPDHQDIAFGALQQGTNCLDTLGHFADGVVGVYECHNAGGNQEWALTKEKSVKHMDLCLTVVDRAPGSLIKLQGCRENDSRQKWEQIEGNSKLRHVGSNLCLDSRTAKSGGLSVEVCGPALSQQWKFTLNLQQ
Method: as §1, §3, §2

[4] = tested on: unglycosylated MUC1 peptide; test: Direct binding assay (ELISA) of biotinylated GalNAc-transferases to unglycosylated MUC1 peptide (FIG. 4); parameters: species or system human; settings: coated at 1 μg/ml, biotinylated enzymes
Method: (§4) FIG. 4 is a plot of absorbance v. ligand dilution showing GalNAc-transferase binding to GalNAc-MUC1 glycopeptide. A direct binding assay (ELISA) mediated by the lectin domain was developed and validated with soluble secreted GalNAc-T4 and -T2 enzyme proteins. ELISA plates were coated with peptides or glycopeptides at 1 μg/ml, blocked with BSA, and incubated with biotinylated enzymes. After washing, bound enzyme proteins were detected with HRP-Streptavidin as described in detail in Example 2. Secreted soluble constructs of GalNAc-transferases which are enzymatically active may bind to (glyco)peptide substrates through their catalytic units as originally described for GalNAc-T2^32.
as §1, with “Development was performed with 0.5 mg/ml o-phenylenediamine and 0.02% H2O2 at room temperature for 15 min, and reaction stopped by adding 100 μl/well of 0.5 N H2SO4. Competitive inhibition assays were done at end-point titers of GalNAc-transferase proteins with one hour preincubations with inhibitor.” left out

GalNAc-MUC1 glycopeptide = test: Direct binding assay (ELISA) of biotinylated GalNAc-transferases to GalNAc-MUC1 glycopeptide (FIG. 4); parameters: species or system human; settings: coated at 1 μg/ml, biotinylated enzymes
Method: as §4
as §1, with “Development was performed with 0.5 mg/ml o-phenylenediamine and 0.02% H2O2 at room temperature for 15 min, and reaction stopped by adding 100 μl/well of 0.5 N H2SO4. Competitive inhibition assays were done at end-point titers of GalNAc-transferase proteins with one hour preincubations with inhibitor.” left out

T3 sequence (Q10471 52-571 limits assumed): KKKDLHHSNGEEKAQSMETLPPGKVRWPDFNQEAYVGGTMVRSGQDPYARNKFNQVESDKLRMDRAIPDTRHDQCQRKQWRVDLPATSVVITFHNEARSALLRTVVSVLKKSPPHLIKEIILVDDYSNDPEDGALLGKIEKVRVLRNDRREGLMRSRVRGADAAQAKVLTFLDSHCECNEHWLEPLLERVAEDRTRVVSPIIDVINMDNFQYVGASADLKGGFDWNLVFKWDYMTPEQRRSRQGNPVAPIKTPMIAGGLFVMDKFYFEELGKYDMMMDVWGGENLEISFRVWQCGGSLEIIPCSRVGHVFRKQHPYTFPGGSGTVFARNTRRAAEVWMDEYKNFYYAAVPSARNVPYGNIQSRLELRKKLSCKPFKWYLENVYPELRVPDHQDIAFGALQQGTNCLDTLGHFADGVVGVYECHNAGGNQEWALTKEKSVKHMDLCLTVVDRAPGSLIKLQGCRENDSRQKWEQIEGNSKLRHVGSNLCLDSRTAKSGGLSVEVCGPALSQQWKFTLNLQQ
T1 sequence (Q8N4A0 36-578 limits assumed): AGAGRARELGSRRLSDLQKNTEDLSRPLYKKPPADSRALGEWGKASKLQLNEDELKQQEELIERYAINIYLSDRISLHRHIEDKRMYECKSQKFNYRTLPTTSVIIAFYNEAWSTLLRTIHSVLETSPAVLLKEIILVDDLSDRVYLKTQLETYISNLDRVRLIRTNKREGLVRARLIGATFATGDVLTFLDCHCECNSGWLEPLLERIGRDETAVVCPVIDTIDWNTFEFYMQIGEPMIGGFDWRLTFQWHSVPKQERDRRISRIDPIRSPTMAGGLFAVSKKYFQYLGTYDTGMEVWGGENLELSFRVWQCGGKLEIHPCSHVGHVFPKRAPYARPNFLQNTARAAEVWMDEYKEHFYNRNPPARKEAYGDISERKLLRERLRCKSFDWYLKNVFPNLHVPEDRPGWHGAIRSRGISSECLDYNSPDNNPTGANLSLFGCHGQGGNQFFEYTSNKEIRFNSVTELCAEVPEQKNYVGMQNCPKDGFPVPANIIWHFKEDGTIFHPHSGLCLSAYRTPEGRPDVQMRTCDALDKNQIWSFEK
Chain of human GalNAc-T2 (UDP-GalNAc:polypeptide N-acetylgalactosaminyltransferase T2), secreted soluble enzyme (sT2), wild type (Q10471 52-571 limits assumed): as the sequence (Q10471 52-571 limits assumed) above
T2 sequence (Q8N4A0 405-578): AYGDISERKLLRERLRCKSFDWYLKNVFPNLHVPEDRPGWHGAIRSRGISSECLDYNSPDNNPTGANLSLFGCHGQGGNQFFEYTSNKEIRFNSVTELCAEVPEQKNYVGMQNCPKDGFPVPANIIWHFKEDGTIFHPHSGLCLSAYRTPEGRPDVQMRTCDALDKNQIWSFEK

Compound	IC50 [1] [mM]	IC50 [2] [mM]	binding to unglycosylated MUC1 peptide [4]	binding to GalNAc-MUC1 glycopeptide (GalNAc-MUC1 glycopeptide)	also measured
CC(=O)N[C@H]1[C@@H](Oc2ccccc2[N+](=O)[O-])O[C@H](CO)[C@H](O)[C@@H]1O [oNPαGalNAc]	0.5	7	–	–	IC50 (GalNAc-T4 lectin domain): 5 mM
CC(=O)N[C@H]1[C@H](Oc2ccccc2[N+](=O)[O-])O[C@H](CO)[C@H](O)[C@@H]1O [oNPβGalNAc]	–	–	–	–	IC50 [3]: 10 mM
CC(=O)N[C@H]1[C@@H](Oc2ccc([N+](=O)[O-])cc2)O[C@H](CO)[C@H](O)[C@@H]1O [pNPαGalNAc]	1	> 10	–	–	IC50 (GalNAc-T2 lectin domain): > 10 mM
GalNAc-T2: soluble secreted human GalNAc-T2 enzyme protein, biotinylated	–	–	no significant binding	selectively bind	–
GalNAc-T4 wild type: soluble secreted human GalNAc-T4 enzyme protein, biotinylated	–	–	no significant binding	selectively bind	–
